Experimental data from patent US8598344B2, “CDKI pathway inhibitors and uses thereof” (Senex Biotechnology, priority 2009, dated 2013).
Where two headings read alike, the source gives them in different places.

Columns and labels:
CLK4 = target: T1, CLK4 (Homo sapiens, UniProt Q9HAZ1); assay: KinomeScan competition binding assay; conditions: 10 μM compound
T1 construct: purchased KinomeScan, a division of Ambit Biosciences
Procedure, shortened: (§1)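 qPCR read-out of DNA tag; DNA-tagged kinase + immobilized ATP-site ligand + test compound. Competition binding expressed as % of control (POC) or Kd.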

PIP5K2C = target: T2, PIP5K2C (Homo sapiens, UniProt Q8TBX8); assay: KinomeScan competition binding assay; conditions: 10 μM compound
T2 construct: purchased KinomeScan, a division of Ambit Biosciences
T2 sequence (Q8TBX8 1-421): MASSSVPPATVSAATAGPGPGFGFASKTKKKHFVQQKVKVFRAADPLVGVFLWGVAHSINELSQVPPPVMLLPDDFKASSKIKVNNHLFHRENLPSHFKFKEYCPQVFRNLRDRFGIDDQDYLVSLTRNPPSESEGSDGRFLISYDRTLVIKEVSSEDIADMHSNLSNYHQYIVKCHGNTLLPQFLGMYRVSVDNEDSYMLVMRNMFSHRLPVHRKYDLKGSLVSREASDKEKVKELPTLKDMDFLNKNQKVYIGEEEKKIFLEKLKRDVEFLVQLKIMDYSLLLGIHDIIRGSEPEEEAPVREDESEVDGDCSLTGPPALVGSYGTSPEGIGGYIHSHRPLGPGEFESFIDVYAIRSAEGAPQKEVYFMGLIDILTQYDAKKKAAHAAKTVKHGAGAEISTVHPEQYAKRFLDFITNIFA
Procedure, shortened: as §1

PIK3CG = target: T3, PIK3CG (Homo sapiens, UniProt P48736); assay: KinomeScan competition binding assay; conditions: 10 μM compound
T3 construct: purchased KinomeScan, a division of Ambit Biosciences
T3 sequence (P48736 whole entry): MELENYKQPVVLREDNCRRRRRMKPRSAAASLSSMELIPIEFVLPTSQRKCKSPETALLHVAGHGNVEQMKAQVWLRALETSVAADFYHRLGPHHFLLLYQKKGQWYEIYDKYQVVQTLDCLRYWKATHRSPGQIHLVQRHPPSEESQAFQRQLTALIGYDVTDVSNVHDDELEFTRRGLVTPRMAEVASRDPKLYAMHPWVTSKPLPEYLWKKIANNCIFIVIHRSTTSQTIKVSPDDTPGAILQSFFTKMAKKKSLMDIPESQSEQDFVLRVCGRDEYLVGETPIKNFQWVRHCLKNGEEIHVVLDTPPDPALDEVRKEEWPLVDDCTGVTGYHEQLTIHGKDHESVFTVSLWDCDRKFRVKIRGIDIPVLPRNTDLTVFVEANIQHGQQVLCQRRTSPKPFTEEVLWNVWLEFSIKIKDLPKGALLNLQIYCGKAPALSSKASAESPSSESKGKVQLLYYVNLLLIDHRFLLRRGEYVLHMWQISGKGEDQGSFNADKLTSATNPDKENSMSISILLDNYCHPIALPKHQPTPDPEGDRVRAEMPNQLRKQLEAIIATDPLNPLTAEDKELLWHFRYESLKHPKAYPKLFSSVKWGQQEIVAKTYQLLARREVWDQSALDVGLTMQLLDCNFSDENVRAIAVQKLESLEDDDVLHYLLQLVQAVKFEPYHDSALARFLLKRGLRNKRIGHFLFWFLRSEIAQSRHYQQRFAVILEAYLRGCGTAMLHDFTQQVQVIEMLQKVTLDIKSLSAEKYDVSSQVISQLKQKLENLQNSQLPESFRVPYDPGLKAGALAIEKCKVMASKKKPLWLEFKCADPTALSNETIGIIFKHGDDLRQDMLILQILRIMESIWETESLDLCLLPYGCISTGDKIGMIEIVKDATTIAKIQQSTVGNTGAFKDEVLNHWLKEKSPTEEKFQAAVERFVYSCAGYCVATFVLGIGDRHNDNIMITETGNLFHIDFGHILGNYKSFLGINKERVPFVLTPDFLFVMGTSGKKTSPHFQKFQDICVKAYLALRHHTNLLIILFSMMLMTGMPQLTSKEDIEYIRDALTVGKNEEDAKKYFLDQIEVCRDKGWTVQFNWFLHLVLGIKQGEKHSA
Procedure, shortened: as §1

IRAK1 = target: T4, IRAK1 (Homo sapiens, UniProt P51617); assay: KinomeScan competition binding assay; conditions: 10 μM compound
T4 construct: purchased KinomeScan, a division of Ambit Biosciences
Procedure, shortened: as §1

CSNK1G3 = target: T5, CSNK1G3 (Homo sapiens, UniProt Q9Y6M4); assay: KinomeScan competition binding assay; conditions: 10 μM compound
T5 construct: purchased KinomeScan, a division of Ambit Biosciences
T5 sequence (Q9Y6M4 whole entry): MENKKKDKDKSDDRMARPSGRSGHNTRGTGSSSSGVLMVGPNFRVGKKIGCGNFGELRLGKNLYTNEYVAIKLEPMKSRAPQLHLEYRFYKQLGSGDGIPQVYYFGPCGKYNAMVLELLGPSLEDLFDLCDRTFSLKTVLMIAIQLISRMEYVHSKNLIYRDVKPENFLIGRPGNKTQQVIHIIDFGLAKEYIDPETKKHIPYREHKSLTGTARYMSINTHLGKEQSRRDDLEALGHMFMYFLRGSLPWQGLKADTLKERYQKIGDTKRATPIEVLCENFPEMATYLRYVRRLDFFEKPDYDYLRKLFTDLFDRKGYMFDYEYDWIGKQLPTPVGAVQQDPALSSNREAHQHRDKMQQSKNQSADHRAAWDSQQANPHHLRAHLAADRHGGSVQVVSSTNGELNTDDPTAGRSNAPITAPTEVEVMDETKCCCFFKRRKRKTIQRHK
Procedure, shortened: as §1

PIK3CA (I800L) = target: T6, PIK3CA (I800L) (Homo sapiens, UniProt P42336, I800L); assay: KinomeScan competition binding assay; conditions: 10 μM compound
T6 construct: purchased KinomeScan, a division of Ambit Biosciences
T6 sequence (P42336 whole entry I800L): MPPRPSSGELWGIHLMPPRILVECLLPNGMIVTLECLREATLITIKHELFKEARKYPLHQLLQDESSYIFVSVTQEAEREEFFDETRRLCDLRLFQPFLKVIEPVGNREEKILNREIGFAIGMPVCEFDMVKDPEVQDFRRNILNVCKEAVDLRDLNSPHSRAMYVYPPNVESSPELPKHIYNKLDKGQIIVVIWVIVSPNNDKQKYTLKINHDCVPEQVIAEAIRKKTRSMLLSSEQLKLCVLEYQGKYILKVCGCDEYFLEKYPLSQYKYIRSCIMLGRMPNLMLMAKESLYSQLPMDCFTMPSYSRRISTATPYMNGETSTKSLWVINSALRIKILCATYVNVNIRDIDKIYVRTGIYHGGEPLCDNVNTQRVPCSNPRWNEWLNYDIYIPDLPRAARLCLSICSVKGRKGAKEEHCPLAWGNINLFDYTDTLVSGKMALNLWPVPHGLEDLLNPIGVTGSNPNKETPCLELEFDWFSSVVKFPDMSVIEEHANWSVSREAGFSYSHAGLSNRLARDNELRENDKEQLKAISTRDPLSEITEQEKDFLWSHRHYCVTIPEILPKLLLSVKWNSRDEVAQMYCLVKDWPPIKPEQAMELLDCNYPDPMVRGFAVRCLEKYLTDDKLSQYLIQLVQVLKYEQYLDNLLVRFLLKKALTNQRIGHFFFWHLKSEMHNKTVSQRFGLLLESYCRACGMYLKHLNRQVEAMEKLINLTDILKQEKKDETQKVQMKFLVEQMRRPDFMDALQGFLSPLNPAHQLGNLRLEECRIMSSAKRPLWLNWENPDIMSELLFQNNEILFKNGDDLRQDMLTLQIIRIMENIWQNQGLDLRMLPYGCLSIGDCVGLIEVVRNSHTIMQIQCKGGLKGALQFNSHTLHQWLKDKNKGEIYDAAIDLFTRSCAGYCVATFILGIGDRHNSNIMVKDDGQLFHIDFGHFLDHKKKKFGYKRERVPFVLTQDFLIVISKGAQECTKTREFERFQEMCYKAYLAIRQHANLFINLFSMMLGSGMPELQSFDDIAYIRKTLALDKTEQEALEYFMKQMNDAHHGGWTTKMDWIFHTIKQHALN
Procedure, shortened: as §1

CDK19 = target: T7, CDK19 (Homo sapiens, UniProt Q9BWU1); assay: KinomeScan competition binding assay; conditions: for POC ligand binding, CDK19: 10 μM compound
T7 construct: purchased KinomeScan, a division of Ambit Biosciences
T7 sequence (Q9BWU1 whole entry): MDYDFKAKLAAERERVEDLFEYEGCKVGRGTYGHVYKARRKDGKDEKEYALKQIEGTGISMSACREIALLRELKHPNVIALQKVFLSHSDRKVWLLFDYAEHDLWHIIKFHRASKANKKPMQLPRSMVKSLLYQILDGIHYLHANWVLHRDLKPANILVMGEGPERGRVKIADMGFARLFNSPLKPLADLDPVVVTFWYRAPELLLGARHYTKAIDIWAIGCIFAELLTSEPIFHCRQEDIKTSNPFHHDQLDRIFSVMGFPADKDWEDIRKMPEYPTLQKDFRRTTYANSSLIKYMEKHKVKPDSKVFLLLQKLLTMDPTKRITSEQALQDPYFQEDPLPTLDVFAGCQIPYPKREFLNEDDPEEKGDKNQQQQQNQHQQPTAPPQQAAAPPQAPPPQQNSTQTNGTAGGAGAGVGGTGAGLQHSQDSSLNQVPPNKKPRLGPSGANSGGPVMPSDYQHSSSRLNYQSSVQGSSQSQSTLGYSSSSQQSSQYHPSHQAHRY
Procedure, shortened: as §1

HIPK3 = target: T8, HIPK3 (Homo sapiens, UniProt Q9H422); assay: KinomeScan competition binding assay; conditions: 10 μM compound
T8 construct: purchased KinomeScan, a division of Ambit Biosciences
T8 sequence (Q9H422 whole entry): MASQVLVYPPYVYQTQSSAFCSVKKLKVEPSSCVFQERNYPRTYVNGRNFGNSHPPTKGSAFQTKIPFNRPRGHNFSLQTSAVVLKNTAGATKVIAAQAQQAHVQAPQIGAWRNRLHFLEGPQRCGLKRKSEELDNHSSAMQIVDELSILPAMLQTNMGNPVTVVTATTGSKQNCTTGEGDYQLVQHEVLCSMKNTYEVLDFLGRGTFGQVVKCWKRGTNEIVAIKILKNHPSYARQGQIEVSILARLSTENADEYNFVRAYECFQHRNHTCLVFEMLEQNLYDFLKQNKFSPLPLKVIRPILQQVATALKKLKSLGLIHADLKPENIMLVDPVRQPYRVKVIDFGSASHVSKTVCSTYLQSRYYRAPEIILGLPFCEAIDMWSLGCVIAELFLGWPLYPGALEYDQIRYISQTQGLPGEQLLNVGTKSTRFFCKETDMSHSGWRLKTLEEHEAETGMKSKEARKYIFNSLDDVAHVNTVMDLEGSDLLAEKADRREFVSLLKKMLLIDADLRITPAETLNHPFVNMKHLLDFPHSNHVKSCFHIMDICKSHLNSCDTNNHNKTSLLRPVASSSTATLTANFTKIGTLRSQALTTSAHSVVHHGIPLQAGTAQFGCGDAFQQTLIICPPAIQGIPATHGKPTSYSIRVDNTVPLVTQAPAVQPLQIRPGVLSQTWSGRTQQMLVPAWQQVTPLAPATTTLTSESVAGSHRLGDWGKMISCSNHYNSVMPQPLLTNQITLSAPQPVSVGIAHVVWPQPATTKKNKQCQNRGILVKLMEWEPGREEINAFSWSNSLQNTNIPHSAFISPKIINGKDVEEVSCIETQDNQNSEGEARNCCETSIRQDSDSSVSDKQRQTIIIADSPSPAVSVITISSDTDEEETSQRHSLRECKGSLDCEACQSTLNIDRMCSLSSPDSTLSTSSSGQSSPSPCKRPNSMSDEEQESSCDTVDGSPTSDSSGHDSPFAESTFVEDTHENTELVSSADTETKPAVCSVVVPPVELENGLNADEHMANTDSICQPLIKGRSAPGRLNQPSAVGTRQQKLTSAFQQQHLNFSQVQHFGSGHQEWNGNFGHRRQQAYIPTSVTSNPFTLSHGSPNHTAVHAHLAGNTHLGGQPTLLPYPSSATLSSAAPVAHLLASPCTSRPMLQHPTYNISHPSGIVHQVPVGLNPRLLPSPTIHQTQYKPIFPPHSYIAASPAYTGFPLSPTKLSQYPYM
Procedure, shortened: as §1

EGFR (G719C) = target: T9, EGFR (G719C) (Homo sapiens, UniProt P00533, G719C); assay: KinomeScan competition binding assay; conditions: 10 μM compound
T9 construct: purchased KinomeScan, a division of Ambit Biosciences
Procedure, shortened: as §1

MAPKAPK5 = target: T10, MAPKAPK5 (Homo sapiens, UniProt Q8IW41); assay: KinomeScan competition binding assay; conditions: 10 μM compound
T10 construct: purchased KinomeScan, a division of Ambit Biosciences
T10 sequence (Q8IW41 1-473): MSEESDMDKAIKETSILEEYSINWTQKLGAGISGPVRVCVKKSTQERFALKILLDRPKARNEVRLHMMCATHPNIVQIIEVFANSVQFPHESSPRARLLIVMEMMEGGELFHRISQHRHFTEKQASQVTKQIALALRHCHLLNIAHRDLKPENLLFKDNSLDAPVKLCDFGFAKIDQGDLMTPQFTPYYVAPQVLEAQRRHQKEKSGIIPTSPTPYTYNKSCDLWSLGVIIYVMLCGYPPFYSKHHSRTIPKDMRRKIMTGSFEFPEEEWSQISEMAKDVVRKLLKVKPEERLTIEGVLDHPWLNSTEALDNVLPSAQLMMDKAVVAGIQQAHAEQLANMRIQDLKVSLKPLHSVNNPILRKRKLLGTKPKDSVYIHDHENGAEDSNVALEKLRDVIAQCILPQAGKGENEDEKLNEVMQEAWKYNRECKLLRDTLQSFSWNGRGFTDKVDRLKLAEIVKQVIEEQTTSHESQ
Procedure, shortened: as §1

CLK1 = target: T11, CLK1 (Homo sapiens, UniProt P49759); assay: KinomeScan competition binding assay; conditions: 10 μM compound
T11 construct: purchased KinomeScan, a division of Ambit Biosciences
T11 sequence (P49759 whole entry): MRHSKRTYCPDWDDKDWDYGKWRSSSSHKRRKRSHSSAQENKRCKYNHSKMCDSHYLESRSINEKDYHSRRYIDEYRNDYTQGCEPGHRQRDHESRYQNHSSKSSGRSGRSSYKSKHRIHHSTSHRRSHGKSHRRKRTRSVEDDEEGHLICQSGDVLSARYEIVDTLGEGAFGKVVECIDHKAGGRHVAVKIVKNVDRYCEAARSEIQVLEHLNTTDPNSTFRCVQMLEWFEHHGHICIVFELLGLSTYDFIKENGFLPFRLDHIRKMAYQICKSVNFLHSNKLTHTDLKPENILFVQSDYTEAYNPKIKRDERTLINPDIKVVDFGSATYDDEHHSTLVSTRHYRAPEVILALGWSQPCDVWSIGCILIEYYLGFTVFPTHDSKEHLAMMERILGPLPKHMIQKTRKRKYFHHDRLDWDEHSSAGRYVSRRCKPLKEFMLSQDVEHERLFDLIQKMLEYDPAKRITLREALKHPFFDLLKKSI
Procedure, shortened: as §1

[1] = test system: induction of transcription by p21 (CDKI pathway, CMV promoter-GFP) in HT1080 fibrosarcoma cells; assay: Cellular assay for CDKI pathway inhibition: CMV-GFP induction by IPTG-inducible p21 in HT1080 reporter cells; type: cell-based, human
Experimental: Briefly, the reporter cell line described in the above-referenced application, which carries IPTG (isopropyl-β-thio-galactoside)-inducible p21 gene together with a p21-inducible promoter driving the expression of Green Fluorescent Protein (GFP) was plated in 96-well plates, at 2000 cells per well for the no-IPTG arm of the assay and at 5000 cells per well for the IPTG arm of the assay. To induce the maximal levels of p21, IPTG was added to 50 μM concentration. Serial 2-fold dilutions of the tested compounds were added in quadruplicates to wells with and without IPTG, ˜10 min after IPTG addition.
This assay is based on the induction of green fluorescent protein (GFP) expression from the cytomegalovirus (CMV) promoter in human HT1080 fibrosarcoma cells that express CDKI p21 from an isopropyl-(3-thio-galactoside (IPTG)-inducible promoter. The compound activity as a CDKI pathway inhibitor is measured by its ability to prevent the stimulation of the CMV promoter upon the addition of p21-inducing IPTG. CMV promoter activity is measured by the ratio of GFP fluorescence to the relative cell number, as determined by staining cellular DNA with Hoechst 33342. This assay was conducted in two modes. […]

[2] = Table 2, calculated assuming maximal effect = zero GFP/Hoechst, no unit in table, μM from FIG. 8 legend, no activity at 40 μM given as >100, read-out: IC50 in the cellular assay

Structure (SMILES): N#Cc1ccc2ncnc(NCc3ccc4ccccc4c3)c2c1 [compound 43]
- POC ligand binding, CLK4 (CLK4; 10 µM): 9.6 POC
- POC ligand binding, PIP5K2C (PIP5K2C; 10 µM): 4 POC
- POC ligand binding, PIK3CG (PIK3CG): 35 POC
- POC ligand binding, IRAK1 (IRAK1; 10 µM): 7.6 POC
- POC ligand binding, CSNK1G3 (CSNK1G3; 10 µM): 54 POC
- POC ligand binding, PIK3CA (I800L) (PIK3CA (I800L); 10 µM): 87 POC
- POC ligand binding, CDK19 (CDK19; 10 µM): 0.25 POC
- Kd (CDK19; read-out: CDK19 inhibition (Kd)): 190 nM
- POC ligand binding, HIPK3 (HIPK3; 10 µM): 42 POC
- POC ligand binding, EGFR (G719C) (EGFR (G719C); 10 µM): 53 POC
- POC ligand binding, MAPKAPK5 (MAPKAPK5; 10 µM): 85 POC
- POC ligand binding, CLK1 (CLK1; 10 µM): 9 POC
- IC50 ([1]; Table 1, IC50 calculated on the basis of the maximal inhibition produced by the highest doses, IPTG mode (50 μM or 2 μM) not stated, read-out: Cell-based assay (IC50)): 0.22 µM
- IC50 [1, 2]: 0.95 µM

Structure (SMILES): COc1ccc2ncnc(NCCc3ccccc3)c2c1 [compound 44]
- POC ligand binding, CLK4 (CLK4): 17 POC
- POC ligand binding, PIP5K2C (PIP5K2C): 59 POC
- POC ligand binding, PIK3CG (PIK3CG): 88 POC
- POC ligand binding, IRAK1 (IRAK1): 64 POC
- POC ligand binding, CSNK1G3 (CSNK1G3): 84 POC
- POC ligand binding, PIK3CA (I800L) (PIK3CA (I800L)): 86 POC
- POC ligand binding, CDK19 (CDK19): 9.2 POC
- POC ligand binding, HIPK3 (HIPK3): 53 POC
- POC ligand binding, EGFR (G719C) (EGFR (G719C)): 0.85 POC
- POC ligand binding, MAPKAPK5 (MAPKAPK5): 94 POC
- POC ligand binding, CLK1 (CLK1): 17 POC
- IC50 [1, 2]: 11 µM

Structure (SMILES): CC(C)CNc1ncnc2ccc(C(F)(F)F)cc12 [compound 45]
- POC ligand binding, CLK4 (CLK4): 7.8 POC
- POC ligand binding, PIP5K2C (PIP5K2C): 60 POC
- POC ligand binding, PIK3CG (PIK3CG): 82 POC
- POC ligand binding, IRAK1 (IRAK1): 25 POC
- POC ligand binding, CSNK1G3 (CSNK1G3): 50 POC
- POC ligand binding, PIK3CA (I800L) (PIK3CA (I800L)): 83 POC
- POC ligand binding, CDK19 (CDK19): 21 POC
- POC ligand binding, HIPK3 (HIPK3): 28 POC
- POC ligand binding, EGFR (G719C) (EGFR (G719C)): 59 POC
- POC ligand binding, MAPKAPK5 (MAPKAPK5): 100 POC
- POC ligand binding, CLK1 (CLK1): 8.4 POC
- IC50 [1, 2]: 12.8 µM

Structure (SMILES): CCCNc1ncnc2ccc(N3CCOCC3)cc12 [compound 46]
- POC ligand binding, CLK4 (CLK4): 24 POC
- POC ligand binding, PIP5K2C (PIP5K2C): 61 POC
- POC ligand binding, PIK3CG (PIK3CG): 94 POC
- POC ligand binding, IRAK1 (IRAK1): 81 POC
- POC ligand binding, CSNK1G3 (CSNK1G3): 100 POC
- POC ligand binding, PIK3CA (I800L) (PIK3CA (I800L)): 83 POC
- POC ligand binding, CDK19 (CDK19): 100 POC
- POC ligand binding, HIPK3 (HIPK3): 34 POC
- POC ligand binding, EGFR (G719C) (EGFR (G719C)): 61 POC
- POC ligand binding, MAPKAPK5 (MAPKAPK5): 91 POC
- POC ligand binding, CLK1 (CLK1): 48 POC
- IC50 [1, 2]: > 100 µM
